Laboratory results published in patent publication US10307463B2 (priority 2003, dated 2019).

Columns and labels:
GI transit = settings: rat, in vivo
[1] = test system: thermal (heat) response latencies; settings: rat, in vivo
[2] = test system: formalin-induced tonic flinch responses; settings: rat, in vivo; cited from earlier work
[3] = test system: formalin-induced tonic flinch responses; settings: rat, in vivo
[4] = test system: heart rate and arterial blood pressure; settings: rat, in vivo

## CN1CC[C@]23c4c5ccc(O)c4OC2C(O)C=C[C@H]3[C@H]1C5 (stereo partly drawn) [morphine, 7,8-didehydro-4,5-epoxy-17-methylmorphinan-3,6-diol]
GI transit
  GI transit: dose-dependent inhibition
[1]
  development of tolerance to analgesic effects: declined in magnitude
  thermal (heat) response latencies: moderately antinociceptive
[2]
  tonic formalin-induced flinching behavior after six days infusion: significantly reduced

## CCCCN1CCCCC1C(=O)Nc1c(C)cccc1C (stereo not drawn) [bupivacaine]
[3]
  formalin-induced tonic (persistent) pain behavior: did not significantly inhibit
  hindpaw paralysis: immediate but transient hindpaw paralysis

## Clc1cccc(Cl)c1N=C1NCCN1 [clonidine, 2,6-dichloro-N-2-imidazolidinylidenebenzenamine]
[3]
  formalin-induced tonic (persistent) pain behavior: dose-dependently suppressed
[4]
  heart rate: dose-dependent bradycardia

## NCC(CC(=O)O)c1ccc(Cl)cc1 (stereo not drawn) [baclofen, γ-amino-β-(p-chlorophenyl) butyric acid]
[3]
  formalin-induced tonic (persistent) pain behavior: dose-dependent reductions
